Laboratory results from patent US20210069145A1, “COMPOSITIONS AND METHODS FOR REDUCING A FATTY ACID DESATURATION INDEX IN A SUBJECT IN NEED THEREOF” (Amarin Pharmaceuticals Ireland Limited, priority 2013, published 2021).

System: Lipoprotein Particle Concentrations
Experiment: Lipoprotein particle concentrations, 12-week double-blind placebo-controlled study of >96% E-EPA in statin-treated patients
Format: in vivo, human
Details: 12 weeks; for IDL, Change From Baseline, % / IDL, End of Treatment / Large HDL, Change From Baseline, % / Large HDL, End of Treatment / Large LDL, Change From Baseline, % / Large LDL, End of Treatment / Large VLDL, Change From Baseline, % / Large VLDL, End of Treatment / Medium HDL, Change From Baseline, % / Medium HDL, End of Treatment / Medium VLDL, Change From Baseline, % / Medium VLDL, End of Treatment / Small HDL, Change From Baseline, % / Small HDL, End of Treatment / Small LDL, Change From Baseline, % / Small LDL, End of Treatment / Small VLDL, Change From Baseline, % / Small VLDL, End of Treatment / Total HDL, Change From Baseline, % / Total HDL, End of Treatment / Total LDL, Change From Baseline, % / Total LDL, End of Treatment / Total VLDL, Change From Baseline, % / Total VLDL, End of Treatment: median
Procedure: A multi-center, placebo-controlled, randomized, double-blind, 12-week study was performed to evaluate the efficacy and safety of >96% E-EPA in patients with fasting triglyceride levels ≥200 mg/dl and <500 mg/dl despite statin therapy (the mean of two qualifying entry values needed to be ≥185 mg/dl and at least one of the values needed to be ≥200 mg/dl). The primary objective of the study was to determine the efficacy of >96% E-EPA 2 g daily and 4 g daily, compared to placebo, in lowering fasting TG levels in patients with high risk for cardiovascular disease and with fasting TG levels ≥200 mg/dl and <500 mg/dl, despite treatment to LDL-C goal on statin therapy.
The population for this study was men and women >18 years of age with a body mass index ≤45 kg/m^2 with fasting TG levels greater than or equal to 200 mg/dl and less than 500 mg/dl and on a stable does of statin therapy (with or without ezetimibe). The statin was atorvostatin, rosuvastatin or simvastatin. The dose of statin must have been stable for ≥4 weeks prior to the LDL-C/TG baseline qualifying measurement for randomization. The statin dose was optimized such that the patients are at their LDL-C goal at the LDL-C/TG baseline qualifying measurements. The same statin at the same dose was continued until the study ended.
Approximately 702 patients were randomized at approximately 80 centers in the U.S. The study was a 18- to 20-week, Phase 3, multi-center study consisting of 2 study periods: (1) A 6- to 8-week screening period that included a diet and lifestyle stabilization, a non-statin lipid-altering treatment washout, and an LDL-C and TG qualifying period and (2) A 12-week, double-blind, randomized, placebo-controlled treatment period.
After confirmation of qualifying fasting LDL-C and TG values, eligible patients entered a 12-week, randomized, double-blind treatment period. At Visit 4 (Week 0), patients were randomly assigned to 1 of the following treatment groups: • >96% E-EPA 2 g daily, • >96% E-EPA 4 g daily, or • Placebo.
During the double-blind treatment period, patients were to take 2 capsules (>96% E-EPA or matching placebo) in the morning and 2 capsules in the evening for a total of 4 capsules per day. • Patients in the >96% E-EPA 2 g/day treatment group received 1>96% E-EPA 1 g capsule and 1 matching placebo capsule in the morning and in the evening. • Patients in the >96% E-EPA 4 g/day treatment group received 2>96% E-EPA 1 g capsules in the morning and evening.
The primary efficacy variable for the double-blind treatment period was percent change in TG from baseline to Week 12 endpoint. The secondary efficacy variables for the double-blind treatment period included the following: • Percent changes in total cholesterol (TC), high-density lipoprotein cholesterol (HDL-C), LDL-C, calculated non-HDL-C, and very low-density lipoprotein cholesterol (VLDL-C) from baseline to Week 12 endpoint; • Percent change in very low-density lipoprotein TG from baseline to Week 12; • Percent changes in apolipoprotein A-I (apo A-I), apolipoprotein B (apo B), and apo A-I/apo B ratio from baseline to Week 12; • Percent changes in lipoprotein(a) from baseline to Week 12; • Percent changes in LDL particle number and size, measured by nuclear magnetic resonance, from baseline to Week 12; • Percent change in remnant-like particle cholesterol from baseline to Week 12; • Percent change in oxidized LDL from baseline to Week 12; • Changes in FPG and HbA1c from baseline to Week 12; • Change in insulin resistance, as assessed by the homeostasis model index insulin resistance, from baseline to Week 12; • Percent change in lipoprotein associated phospholipase A2 (Lp-PLA2) from baseline to Week 12; • Change in intracellular adhesion molecule-1 from baseline to Week 12; • Change in interleukin-2 from baseline to Week 12; • Change in plasminogen activator inhibitor-1 from baseline to Week 12. […]

[1] = 2 g/day, placebo-adjusted Hodges-Lehmann median
[2] = 4 g/day, placebo-adjusted Hodges-Lehmann median
[3] = 4 g/day, placebo-adjusted Hodges-Lehmann median, listed as Ethyl Eicosapentaenoate
[4] = 4 g/day, placebo-adjusted Hodges-Lehmann median, listed as IPE

CC/C=C\C/C=C\C/C=C\C/C=C\C/C=C\CCCC(=O)OCC [ethyl eicosapentaenoate, all-cis eicosa-5,8,11,14,17-pentaenoic acid ethyl ester] was tested, and the “IDL, Change From Baseline, %” value (2 g/day, n = 222) was 10.5%, the “IDL, End of Treatment” value (2 g/day, n = 222) was 63.5 nmol/L and the “Large HDL, Change From Baseline, %” value (2 g/day, n = 222) was −4.0%. The “Large HDL, End of Treatment” value (2 g/day, n = 222) was 2.4 µmol/L, the “Large LDL, Change From Baseline, %” value (2 g/day, n = 222) was 47.7% and the “Large LDL, End of Treatment” value (2 g/day, n = 222) was 202.0 nmol/L. For the same compound, the “Large VLDL, Change From Baseline, %” value (2 g/day, n = 222) was −19.7%, the “Large VLDL, End of Treatment” value (2 g/day, n = 222) was 10.0 nmol/L and the “Medium HDL, Change From Baseline, %” value (2 g/day, n = 222) was 2.9%. For the same compound, the “Medium HDL, End of Treatment” value (2 g/day, n = 222) was 7.2 µmol/L, the “Medium VLDL, Change From Baseline, %” value (2 g/day, n = 222) was 7.9% and the “Medium VLDL, End of Treatment” value (2 g/day, n = 222) was 59.6 nmol/L. The “Small HDL, Change From Baseline, %” value (2 g/day, n = 222) was −0.6%, the “Small HDL, End of Treatment” value (2 g/day, n = 222) was 23.8 µmol/L and the “Small LDL, Change From Baseline, %” value (2 g/day, n = 222) was −4.3%. The “Small LDL, End of Treatment” value (2 g/day, n = 222) was 920.5 nmol/L, the “Small VLDL, Change From Baseline, %” value (2 g/day, n = 222) was 22.1% and the “Small VLDL, End of Treatment” value (2 g/day, n = 222) was 49.6 nmol/L. The “Total HDL, Change From Baseline, %” value (2 g/day, n = 222) was 0.7%, the “Total HDL, End of Treatment” value (2 g/day, n = 222) was 34.7 µmol/L and the “Total LDL, Change From Baseline, %” value (2 g/day, n = 222) was 4.7%. The “Total LDL, End of Treatment” value (2 g/day, n = 222) was 1215 nmol/L, the “Total VLDL, Change From Baseline, %” value (2 g/day, n = 222) was 12.0% and the “Total VLDL, End of Treatment” value (2 g/day, n = 222) was 122.4 nmol/L. The “IDL, Median Change From Baseline IPE 2 g/day vs Placebo, %” value [1] was 8.6%, the “Large HDL, Median Change From Baseline IPE 2 g/day vs Placebo, %” value [1] was −13.5% and the “Large LDL, Median Change From Baseline IPE 2 g/day vs Placebo, %” value [1] was 26.5%. The “Large VLDL, Median Change From Baseline IPE 2 g/day vs Placebo, %” value [1] was −24.2%, the “Medium HDL, Median Change From Baseline IPE 2 g/day vs Placebo, %” value [1] was −4.5% and the “Medium VLDL, Median Change From Baseline IPE 2 g/day vs Placebo, %” value [1] was 2.6%. The “Small HDL, Median Change From Baseline IPE 2 g/day vs Placebo, %” value [1] was −0.2%, the “Small LDL, Median Change From Baseline IPE 2 g/day vs Placebo, %” value [1] was −14.7% and the “Small VLDL, Median Change From Baseline IPE 2 g/day vs Placebo, %” value [1] was 16.5%. For the same compound, the “Total HDL, Median Change From Baseline IPE 2 g/day vs Placebo, %” value [1] was −3.1%, the “Total LDL, Median Change From Baseline IPE 2 g/day vs Placebo, %” value [1] was −7.5% and the “Total VLDL, Median Change From Baseline IPE 2 g/day vs Placebo, %” value [1] was 1.8%. The “reduction of median concentration of small LDL particles over baseline when adjusted for placebo control” value (4 g per day) was 13.5%, the “reduction of median concentration of total HDL over baseline when adjusted for placebo” value (4 g per day) was 7.4% and the “reduction of median concentration of total LDL over baseline when adjusted for placebo” value (4 g per day) was 7.7%. For the same compound, the “reduction of median concentration of total VLDL over baseline when adjusted for placebo” value (4 g per day) was 12.2%, the “IDL, Change From Baseline, %” value (4 g/day, n = 216) was 23.7% and the “IDL, End of Treatment” value (4 g/day, n = 216) was 63.0 nmol/L. For the same compound, the “Large HDL, Change From Baseline, %” value (4 g/day, n = 216) was −21.6%, the “Large HDL, End of Treatment” value (4 g/day, n = 216) was 1.9 µmol/L and the “Large LDL, Change From Baseline, %” value (4 g/day, n = 216) was 55.2%. The “Large LDL, End of Treatment” value (4 g/day, n = 216) was 172.5 nmol/L, the “Large VLDL, Change From Baseline, %” value (4 g/day, n = 216) was −41.9% and the “Large VLDL, End of Treatment” value (4 g/day, n = 216) was 7.7 nmol/L. The “Medium HDL, Change From Baseline, %” value (4 g/day, n = 216) was 4.2%, the “Medium HDL, End of Treatment” value (4 g/day, n = 216) was 6.9 µmol/L and the “Medium VLDL, Change From Baseline, %” value (4 g/day, n = 216) was −6.9%. The “Medium VLDL, End of Treatment” value (4 g/day, n = 216) was 49.7 nmol/L, the “Small HDL, Change From Baseline, %” value (4 g/day, n = 216) was −3.9% and the “Small HDL, End of Treatment” value (4 g/day, n = 216) was 23.1 µmol/L. For the same compound, the “Small LDL, Change From Baseline, %” value (4 g/day, n = 216) was −1.1%, the “Small LDL, End of Treatment” value (4 g/day, n = 216) was 902.5 nmol/L and the “Small VLDL, Change From Baseline, %” value (4 g/day, n = 216) was 8.3%. For the same compound, the “Small VLDL, End of Treatment” value (4 g/day, n = 216) was 46.8 nmol/L, the “Total HDL, Change From Baseline, %” value (4 g/day, n = 216) was −4.0% and the “Total HDL, End of Treatment” value (4 g/day, n = 216) was 32.6 µmol/L. The “Total LDL, Change From Baseline, %” value (4 g/day, n = 216) was 3.8%, the “Total LDL, End of Treatment” value (4 g/day, n = 216) was 1191 nmol/L and the “Total VLDL, Change From Baseline, %” value (4 g/day, n = 216) was −2.5%. For the same compound, the “Total VLDL, End of Treatment” value (4 g/day, n = 216) was 110.0 nmol/L, the “IDL, Median Change From Baseline IPE 4 g/day vs Placebo, %” value [2] was 10.0% and the “Large HDL, Median Change From Baseline IPE 4 g/day vs Placebo, %” value [2] was “significantly reduced”. The “Large LDL, Median Change From Baseline IPE 4 g/day vs Placebo, %” value [2] was “increased”, the “Large VLDL, Median Change From Baseline IPE 4 g/day vs Placebo, %” value [2] was “significantly reduced” and the “Medium HDL, Median Change From Baseline IPE 4 g/day vs Placebo, %” value [2] was −6.5%. For the same compound, the “Medium VLDL, Median Change From Baseline IPE 4 g/day vs Placebo, %” value [2] was “significantly reduced”, the “Small HDL, Median Change From Baseline IPE 4 g/day vs Placebo, %” value [2] was −2.8% and the “Small LDL, Median Change From Baseline IPE 4 g/day vs Placebo, %” value [2] was “significantly reduced”. The “Small VLDL, Median Change From Baseline IPE 4 g/day vs Placebo, %” value [2] was 2.8%, the “Total HDL, Median Change From Baseline IPE 4 g/day vs Placebo, %” value [2] was “significantly reduced” and the “Total LDL, Median Change From Baseline IPE 4 g/day vs Placebo, %” value [2] was “significantly reduced”. The “Total VLDL, Median Change From Baseline IPE 4 g/day vs Placebo, %” value [2] was “significantly reduced”, the “Small LDL, Median Change From Baseline IPE 4 g/day vs Placebo, %” value [3] was −13.5% and the “Total HDL, Median Change From Baseline IPE 4 g/day vs Placebo, %” value [3] was −7.4%. For the same compound, the “Total LDL, Median Change From Baseline IPE 4 g/day vs Placebo, %” value [3] was −7.7%, the “Total VLDL, Median Change From Baseline IPE 4 g/day vs Placebo, %” value [3] was −12.2% and the “Large HDL, Median Change From Baseline IPE 4 g/day vs Placebo, %” value [4] was −31.0%. For the same compound, the “Large LDL, Median Change From Baseline IPE 4 g/day vs Placebo, %” value [4] was 34.2%, the “Large VLDL, Median Change From Baseline IPE 4 g/day vs Placebo, %” value [4] was −46.4% and the “Medium VLDL, Median Change From Baseline IPE 4 g/day vs Placebo, %” value [4] was −12.1%. For the same compound, the “Small LDL, Median Change From Baseline IPE 4 g/day vs Placebo, %” value [4] was −13.5%, the “Total HDL, Median Change From Baseline IPE 4 g/day vs Placebo, %” value [4] was −7.4% and the “Total LDL, Median Change From Baseline IPE 4 g/day vs Placebo, %” value [4] was −7.7%. For the same compound, the “Total VLDL, Median Change From Baseline IPE 4 g/day vs Placebo, %” value [4] was −12.2%.
